The record followed here is US8492388B2 (priority 2008, dated 2013).

One series can be described thus: Measurement of logP values by HPLC on reversed phase columns (EEC directive 79/831 Annex V.A8).
Conditions: not given
Turning to `Cn1nnnc1C(=O)c1cccc(OC(F)(F)F)c1` [(1-methyl-1H-tetrazol-5-yl)[3-(trifluoromethoxy)phenyl]methanone], the chromatographic logP amounted to 2.96.
On the same count and under the same terms, next, `CN(C)c1cccc(C(=NOCc2cccc(NC(=O)C(F)(F)Oc3ccccc3)n2)c2nnnn2C)c1` [Example 30, N-(6-{[({[3-(dimethylamino)phenyl](1-methyl-1H-tetrazol-5-yl)methylene}amino)oxy]methyl}pyridin-2-yl)-2,2-difluoro-2-phenoxyacetamide]: 4.14; `COCc1cccc(C(=NOCc2cccc(NC(=O)OC(C)(C)C)n2)c2nnnn2C)c1` [Example 32, tert-butyl (6-{[({[3-(methoxymethyl)phenyl](1-methyl-1H-tetrazol-5-yl)methylene}amino)oxy]methyl}pyridin-2-yl)carbamate]: 3.71.
The same measure, in the same setting: next, `CON(C)C(=O)c1cccc(OC(F)(F)F)c1` [N-methoxy-N-methyl-3-(trifluoromethoxy)benzamide]: 2.41; `COCc1cccc(C(=NO)c2nnnn2C)c1` [N-hydroxy-1-[3-(methoxymethyl)phenyl]-1-(1-methyl-1H-tetrazol-5-yl)methanimine]: 1.54.
The compound `COCc1cccc(C(=O)O)c1` [3-(methoxymethyl)benzoic acid] had a chromatographic logP of 1.33.
`Cn1nnnc1C(=NOCc1csc(NC(=O)COc2ccccc2)n1)c1cccc(OC(F)(F)F)c1` [Example 53, N-(4-{[({(1-methyl-1H-tetrazol-5-yl)[3-(trifluoromethoxy)phenyl]methylene}amino)oxy]methyl}-1,3-thiazol-2-yl)-2-phenoxyacetamide]: the chromatographic logP was 3.99.
On the same count and under the same terms, next, `COC(=O)c1cccc(CCl)c1` [3-(chloromethyl)benzoate, methyl 3-(chloromethyl)benzoate]: 2.64.
Same read-out and setting: under `Cn1nnnc1C(=NO)c1cccc(OC(F)(F)F)c1` [N-hydroxy-1-(1-methyl-1H-tetrazol-5-yl)-1-[3-(trifluoromethoxy)phenyl]methanimine] stands 2.37; under `Cn1nnnc1C(=NOCc1csc(N)n1)c1cccc(OC(F)(F)F)c1` [Example 46, 4-{[({(1-methyl-1H-tetrazol-5-yl)[3-(trifluoromethoxy)phenyl]methylene}amino)oxy]methyl}-1,3-thiazol-2-amine], 2.1; under `COCc1cccc(C(=O)c2nnnn2C)c1` [[3-(methoxymethyl)phenyl](1-methyl-1H-tetrazol-5-yl)methanone], 2.01.
The compound `COCc1cccc(C(=O)N(C)OC)c1` [N-methoxy-3-(methoxymethyl)-N-methylbenzamide] gave a chromatographic logP of 1.43.

The same series, now with this note: HPLC reversed phase, pH 2,7, 0.1% formic acid in water / acetonitrile gradient.
With `CON(C)C(=O)Nc1cccc(CON=C(c2cccc(N(C)C)c2)c2nnnn2C)n1` [Example 31], the logp worked out at 2.71.
In turn, `Cn1nnnc1C(=NOCc1cccc(N)n1)c1cccc(OC(F)(F)F)c1` [Example 5] displayed a logp of 1.69.
Still for that read-out and setting: next, `C=CCCOC(=O)Nc1cccc(CON=C(c2cccc(OC(F)(F)F)c2)c2nnnn2C)n1` [Example 8]: 4.2; `CCCCCOC(=O)Nc1cccc(CON=C(c2cccc(COC)c2)c2nnnn2C)n1` [Example 38]: 4.18.
With `C#CCCOC(=O)Nc1cccc(CON=C(c2cccc(N(C)C)c2)c2nnnn2C)n1` [Example 23], the logp is given as 3.21.
The same measure, in the same setting: under `CC#CCOC(=O)Nc1cccc(CON=C(c2cccc(COC)c2)c2nnnn2C)n1` [Example 33] stands 3.21.
The same measure, in the same setting: next, `C=CCCOC(=O)Nc1nc(CON=C(c2cccc(SC)c2)c2nnnn2C)cs1` [Example 21]: 3.64; `C=CCCOC(=O)Nc1cccc(CON=C(c2cccc(N(C)C)c2)c2nnnn2C)n1` [Example 24]: 3.64.

Staying with this series, now noted: pH 2.7.
Turning to `CN(C)c1cccc(C(=NOCc2cccc(NC(=O)C(F)(F)Oc3ccccc3)n2)c2nnnn2C)c1` [Example 30, N-(6-{[({[3-(dimethylamino)phenyl](1-methyl-1H-tetrazol-5-yl)methylene}amino)oxy]methyl}pyridin-2-yl)-2,2-difluoro-2-phenoxyacetamide], the chromatographic logP amounted to 4.14.
For `COCc1cccc(C(=NOCc2cccc(NC(=O)OC(C)(C)C)n2)c2nnnn2C)c1` [Example 32, tert-butyl (6-{[({[3-(methoxymethyl)phenyl](1-methyl-1H-tetrazol-5-yl)methylene}amino)oxy]methyl}pyridin-2-yl)carbamate], the chromatographic logP is 3.71.
Turning to `Cn1nnnc1C(=NOCc1csc(NC(=O)COc2ccccc2)n1)c1cccc(OC(F)(F)F)c1` [Example 53, N-(4-{[({(1-methyl-1H-tetrazol-5-yl)[3-(trifluoromethoxy)phenyl]methylene}amino)oxy]methyl}-1,3-thiazol-2-yl)-2-phenoxyacetamide], the chromatographic logP came to 3.99.
In the case of `Cn1nnnc1C(=NOCc1csc(N)n1)c1cccc(OC(F)(F)F)c1` [Example 46, 4-{[({(1-methyl-1H-tetrazol-5-yl)[3-(trifluoromethoxy)phenyl]methylene}amino)oxy]methyl}-1,3-thiazol-2-amine], the chromatographic logP was 2.1.
On the same count and under the same terms, under `CN(C)c1cccc(C(=NOCc2cccc(N)n2)c2nnnn2C)c1` [Example 22, 6-{[({[3-(dimethylamino)phenyl](1-methyl-1H-tetrazol-5-yl)methylene}amino)oxy]methyl}pyridin-2-amine] stands 1.19.
